Data set [1] can be described thus: physchem. How it is done:
1.9 mg of Form CSII was weighted into a glass vial, then water was added dropwise at 37° C. until the solid is completely dissolved. The maximum insoluble volume and minimum dissolved volume of the sample in water were recorded, and the solubility of Form CSII in water (mg/mL) was calculated.

Data set [2] in a line: Density and flowability (bulk/tapped density, compressibility index). Conditions: for Compressibility index: c=(ρf−ρ0)/ρf; for Tapped density (ρf): tapped 1250 times. The class given is physicochemical. Here is the method: About 300-500 mg of powder were added into a 5-mL measuring cylinder, and a bulk density was recorded. Then the powder was tapped for 1250 times by ZS-2E tap density tester to make it in the tightest state and the tapped volume was recorded. The bulk density (ρ0) and tapped density (ρf) were calculated.
Compressibility also known as the Compressibility index or Carr index is usually utilized to evaluate the flowability of powder or granules during the drug product process. Compressibility index was calculated according to c=(ρf−ρ0)/ρf. According to criteria of flowability recorded in ICH Q4B Annex 13, the smaller the compressibility index, the better the flowability.

The conditions of data set [3]: for Solubility in FaSSIF / Solubility in FeSSIF: 1 h. The text has this: When solubility test is used to predict the in vivo performance of a drug, it is critical to simulate in vivo conditions as closely as possible. Fasted state simulated intestinal fluid (FaSSIF) and fed state simulated intestinal fluid (FeSSIF) can be used to simulate the conditions in vivo and predict the effects of eating, thus solubilities in these media are closer to those in vivo.
A certain amount of Form CSII and prior art Form A were suspended into FeSSIF and FaSSIF to get saturated solutions at 37° C. After equilibrated for 1 h, concentrations of the saturated solutions were measured by HPLC.
A certain amount of Form CSIII and Form A in the prior art were suspended into FeSSIF and FaSSIF to get saturated solutions at 37° C. After equilibrated for 1 h, concentrations of the saturated solutions were measured by HPLC.

Data set [4] is described as follows: Morphology by polarized light microscopy. Format: physicochemical. The note with it: PLM, magnification 100 times. How it is done: PLM data in the present disclosure were acquired by Sunny CX40P polarizing microscope.
The parameter of the PLM method of the present disclosure is as follows: • Magnification times: 100
About 0.5 mg Form CSII and prior art Form A were placed on a glass slide, a small amount of immersion oil was added to disperse the sample, and then the system was covered with a coverslip.
About 0.5 mg Form CSIII and prior art Form A were placed on a glass slide, a small amount of immersion oil was added to disperse the sample, and then the system was covered with a coverslip.

The nature of data set [5]: Compressibility (tensile strength after compression at 3 KN). The class given is physicochemical. Conditions: 60 mg, Φ6 mm round tooling, T=2H/πDL. How it is done: ENERPAC manual tablet press was used for compression. 60 mg of Form CSII and prior art Form A were weighed and added into the dies of a Φ6 mm round tooling, compressed at 3 KN manually, then stored at room temperature for 24 h until elastic recovery is complete, diameter (D) and thickness (L) were tested with a caliper. Hardness (H) was tested with an intelligent tablet hardness tester. Tensile strength of the powder was calculated with the following formula: T=2H/πDL. […] Under a certain force, the greater the tensile strength, the better the compressibility.

Data set [6] in a line: Particle size distribution (Mastersizer 3000, wet mode). The class given is physicochemical. Here is the method: The particle size distribution data in the present disclosure were acquired by a Mastersizer 3000 laser particle size analyzer of Malvern. The test was carried out in wet mode, using a Hydro MV dispersion device, and the dispersant was Isopar G. The parameters are as follows:
Form CSII and prior art Form A were added into glass vials with the Isopar G (containing 0.2% lecithin). The mixture was mixed thoroughly and transferred into the Hydro MV dispersing device. The experiment was started when the obscuration is in appropriate range. The particle size distributions were tested before and after 60 seconds of ultrasonication to obtain the average particle size, D10 (the portion of particles with diameters below this value is 10%), D50 (the portion of particles with diameters below this value is 50%) and D90 (the portion of particles with diameters below this value is 90%), the results are listed in Table 9.

Data set [7] can be described thus: Stability of drug substance on storage (XRPD, HPLC). The class given is physicochemical. How it is done:
A certain amount of Form CSII were stored under different conditions of 25° C./60% RH and 40° C./75% RH after packing with different conditions listed in Table 11. Crystalline forms and chemical purities were checked by XRPD and HPLC, respectively.
Sealed with desiccants and antioxidants: Put a sample into a glass vial, cover the vial with aluminum foil, and punch holes in the foil, then seal the glass vial with 2 g silica gel desiccants and 2.2 g antioxidants in an aluminum foil bag.
A certain amount of Form CSIII were stored under different conditions of 25° C./60% RH, 40° C./75% RH and 60° C./75% RH after packing with different conditions listed in Table 16. Crystalline forms were checked by XRPD.
Sealed with desiccants and antioxidants: Put a sample into a glass vial, cover the vial with aluminum foil, and punch holes in the foil, then seal the glass vial with 2 g silica gel desiccant and 2.2 g antioxidant in an aluminum foil bag.

A short description of data set [8]: Physical stability upon mechanical force (tableting, XRPD). The class given is physicochemical. Conditions: 5 kN pressure for 10 s. The text has this: A certain amount of Form CSII was compressed into a tablet under 5 kN pressure with the dies of a Φ6 mm round tooling by the manual tablet press, and the tablet was kept under 5 kN pressure for 10 s. Crystalline form before and after tableting were checked by XRPD.

Data set [9] can be described thus: Stability of crystalline form in formulation process (XRPD). The class given is physicochemical. The note with it: pre-blending, simulated dry granulation, tableting 5 kN. How it is done: The XRPD of the blank mixed powder and the samples before and after the formulation was tested.
The mark [10] stands for this setting: 25° C./60% RH, sealed with desiccant and antioxidant.
The mark [11] stands for this setting: 40° C./75% RH, sealed with desiccant and antioxidant.

Consider `Br.Br.CCC[C@H](N[C@H]1CCc2cc(F)cc(F)c2C1)C(=O)Nc1cn(C(C)(C)CNCC(C)(C)C)cn1` [Form A, (S)-2-(((S)-6,8-difluoro-1,2,3,4-tetrahydronaphthalen-2-yl)amino)-N-(1-(2-methyl-1-(neopentylamino)propan-2-yl)-1H-imidazol-4-yl) pentanamide, reference compound], for which the “Solubility in water, class by standards of Chinese Pharmacopoeia and United States Pharmacopoeia” value in [1] is on record as “slightly soluble”. In addition, in data set [2], the “Bulk density (ρ0)” value was 0.251 g/mL, the Compressibility index was determined as 10.8% and the “Tapped density (ρf)” value is 0.282 g/mL. In addition, in [3], the “Solubility in FaSSIF” value worked out at 6.7 and the “Solubility in FeSSIF” value is reported as 7.6. Besides, the Morphology result in [4] was “agglomerates”. In [5], this compound registered a Tensile strength of 0.37 MPa. In data set [6] (ultrasonication time 0 s), this compound displayed an Average particle size of 646 μm, a D10 of 21.2 μm, a D50 of 415 μm and a D90 of 1640 μm. Besides, in data set [6] (ultrasonication time 60 s), the Average particle size is on record as 629 μm, the D10 came out at 14.4 μm, the D50 is 356 μm and the D90 is 1660 μm.

With `Br.Br.CCC[C@H](N[C@H]1CCc2cc(F)cc(F)c2C1)C(=O)Nc1cn(C(C)(C)CNCC(C)(C)C)cn1` [Form CSIII, (S)-2-(((S)-6,8-difluoro-1,2,3,4-tetrahydronaphthalen-2-yl)amino)-N-(1-(2-methyl-1-(neopentylamino)propan-2-yl)-1H-imidazol-4-yl) pentanamide], in [3], the “Solubility in FaSSIF, times that of prior art Form A” value is listed as 1.3 times; the “Solubility in FeSSIF, times that of prior art Form A” value amounted to 1.5 times; the “Solubility in FaSSIF” value was found to be 8.7; the “Solubility in FeSSIF” value is given as 11.7. In addition, the “Time the form keeps stable” value in data set [7] (setting [10]) is given as “at least 3 months”. Further, in data set [7] (setting [11]), the “Time the form keeps stable” value is reported as “at least 3 months”. Also, the “Time the form keeps stable” value in [7] (60° C./75% RH, sealed with desiccants and antioxidants) is given as “at least 2 months”. In addition, the Morphology entry in [4] is reported as “uniform plate crystalline form”.

Turning to `Br.Br.CCC[C@H](N[C@H]1CCc2cc(F)cc(F)c2C1)C(=O)Nc1cn(C(C)(C)CNCC(C)(C)C)cn1` [Form CSII, (S)-2-(((S)-6,8-difluoro-1,2,3,4-tetrahydronaphthalen-2-yl)amino)-N-(1-(2-methyl-1-(neopentylamino)propan-2-yl)-1H-imidazol-4-yl) pentanamide], the “Crystalline form after tableting” value in data set [8] is “remains stable after tableting”. Also, the “Solubility in water, times that of Form A” value in data set [1] was 3-5 times. Also, in [1] (37 °C, water, thermodynamic from solid), the solubility fell in the range of 19 to 38 mg/mL. Besides, in [2], the “Bulk density (ρ0)” value turned out to be 0.49 g/mL, the Compressibility index is 5.3% and the “Tapped density (ρf)” value amounted to 0.51 g/mL. Further, in data set [3], the “Solubility in FaSSIF, times that of prior art Form A” value came to 1.5 times; the “Solubility in FeSSIF, times that of prior art Form A” value came out at 1.5 times; the “Solubility in FaSSIF” value was 9.8; the “Solubility in FeSSIF” value worked out at 11.7. The compound also came in with a Purity after storage in data set [7] (25° C./60% RH, 9 months, sealed with desiccants and antioxidants, HPLC) of 99.43%. The “Time the form keeps stable” value in [7] (setting [10]) is listed as “at least 9 months”. This compound also returned a Purity after storage in [7] (40° C./75% RH, 6 months, sealed with desiccants and antioxidants, HPLC) of 99.42%. For the same compound, the “Time the form keeps stable” value in [7] (setting [11]) is given as “at least 6 months”. Besides, the Purity in [7] (initial, HPLC) turned out to be 99.37%. Also, the Morphology result in data set [4] was “uniform plate crystalline form”. In addition, the “Crystalline form after formulation process” value in data set [9] is recorded as “remains stable after the formulation process”. The same compound had a Tensile strength in data set [5] of 0.68 MPa. In data set [6] (ultrasonication time 0 s), this compound yielded an Average particle size of 198 μm, a D10 of 21.9 μm, a D50 of 157 μm and a D90 of 435 μm. In [6] (ultrasonication time 60 s), this compound showed an Average particle size of 119 μm, a D10 of 10.3 μm, a D50 of 81.7 μm and a D90 of 282 μm.

The values above are taken from patent US20240425460A1, “CRYSTAL FORM OF NIROGACESTAT DIHYDROBROMIDE, AND PREPARATION METHOD THEREFOR, AND USE THEREOF” (CRYSTAL PHARMACEUTICAL (SUZHOU) CO., LTD., priority 2022, published 2024).
